Each structure is given as a SMILES string.

The target of this assay is T1, PknB (Mycobacterium tuberculosis, UniProt P9WI81).
T1 construct: made in house
In words: biochemical. Also on record: species or system M. tuberculosis. The conditions noted are these: 3 nM PknB, 6 uM GarA, 3 μM ATP, 30 min, competitive tight-binding fit, several symbols in a cell = repeat determinations; for Ki: read-out: Ki Values.

T1 sequence (P9WI81 whole entry): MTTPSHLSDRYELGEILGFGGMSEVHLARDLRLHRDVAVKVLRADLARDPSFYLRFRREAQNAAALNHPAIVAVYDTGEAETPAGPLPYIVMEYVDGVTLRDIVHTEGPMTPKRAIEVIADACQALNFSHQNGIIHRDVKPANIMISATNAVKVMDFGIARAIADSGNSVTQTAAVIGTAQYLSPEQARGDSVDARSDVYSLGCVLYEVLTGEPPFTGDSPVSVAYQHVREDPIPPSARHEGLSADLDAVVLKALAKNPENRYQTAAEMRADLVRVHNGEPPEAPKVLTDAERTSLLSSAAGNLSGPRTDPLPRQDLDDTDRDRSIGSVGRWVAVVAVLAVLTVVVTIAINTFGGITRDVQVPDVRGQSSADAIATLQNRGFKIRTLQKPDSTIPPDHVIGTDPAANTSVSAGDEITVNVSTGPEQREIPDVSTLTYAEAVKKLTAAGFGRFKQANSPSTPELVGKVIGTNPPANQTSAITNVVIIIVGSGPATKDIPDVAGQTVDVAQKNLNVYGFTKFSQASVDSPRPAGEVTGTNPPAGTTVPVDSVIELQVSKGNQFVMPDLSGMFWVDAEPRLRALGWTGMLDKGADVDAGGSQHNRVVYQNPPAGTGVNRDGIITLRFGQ

For orientation: Ki means a measure of affinity in units of concentration, obtained from inhibition or displacement. Turning to `C#Cc1cnc(-c2ccc(S(=O)(=O)CCCNC(C)=O)s2)nc1Nc1cc(C2CC2)[nH]n1` [Compound 229, N-(3-(5-(4-(5-cyclopropyl-1H-pyrazol-3-ylamino)-5-ethynylpyrimidin-2-yl)thiophen-2-ylsulfonyl)propyl)acetamide], the Ki lay within 10 to 50 nM.
Same read-out and setting: under `C#Cc1cnc(-c2ccc(C(O)CCOC)s2)nc1Nc1cc(C2CC2)n[nH]1` (stereo not shown) [Compound 230, 1-[5-[4-[(5-cyclopropyl-2H-pyrazol-3-yl)amino]-5-ethynyl-pyrimidin-2-yl]-2-thienyl]-3-methoxy-propan-1-ol] stands 50 to 100 nM; under `C#Cc1cnc(-c2ccc(C(O)C(=O)O)s2)nc1Nc1cc(C2CC2)[nH]n1` (stereo not shown) [Compound 231, 2-[5-[4-[(5-cyclopropyl-1H-pyrazol-3-yl)amino]-5-ethynyl-pyrimidin-2-yl]-2-thienyl]-2-hydroxy-acetic acid], 50 to 100 nM; under `C#Cc1cnc(-c2ccc(C(O)C(=O)OCC)s2)nc1Nc1cc(C2CC2)[nH]n1` (stereo not shown) [Compound 233, ethyl 2-[5-[4-[(5-cyclopropyl-1H-pyrazol-3-yl)amino]-5-ethynyl-pyrimidin-2-yl]-2-thienyl]-2-hydroxy-acetate], 10 to 50 nM.
In the case of `NS(=O)(=O)c1ccc(-c2ncc(Cl)c(Nc3cc(-c4ccccc4)[nH]n3)n2)s1` [Compound 234, 5-[5-chloro-4-[(5-phenyl-1H-pyrazol-3-yl)amino]-pyrimidin-2-yl]thiophene-2-sulfonamide], the Ki was greater than 4000 nM.
The same measure, in the same setting: under `NS(=O)(=O)c1ccc(-c2ncc(Cl)c(Nc3cc(C4CCCC4)[nH]n3)n2)s1` [Compound 235, 5-[5-chloro-4-[(5-cyclopentyl-1H-pyrazol-3-yl)amino]-pyrimidin-2-yl]thiophene-2-sulfonamide] stands 10 to 50 nM.
`NS(=O)(=O)c1ccc(-c2ncc(CCO)c(Nc3cc(C4CC4)[nH]n3)n2)s1` [Compound 239, 5-(4-(5-cyclopropyl-1H-pyrazol-3-ylamino)-5-(2-hydroxyethyl)pyrimidin-2-yl)thiophene-2-sulfonamide]: the “Ki Values” is on record as “A*, B**”.
Consider `CC(=O)Nc1cnc(-c2ccc(S(N)(=O)=O)s2)nc1Nc1cc(C2CC2)[nH]n1` [Compound 241, N-[4-[(5-cyclopropyl-1H-pyrazol-3-yl)amino]-2-(5-sulfamoyl-2-thienyl)-pyrimidin-5-yl]acetamide], for which the Ki is 50 to 100 nM.
Take `C#Cc1cnc(-c2ccc(C(O)CCO)s2)nc1Nc1cc(C2CC2)[nH]n1` (stereo not shown) [Compound 242, 1-(5-(4-(5-cyclopropyl-1H-pyrazol-3-ylamino)-5-ethynylpyrimidin-2-yl)thiophen-2-yl)propane-1,3-diol]: the Ki fell in the range of 10 to 50 nM.
On the same count and under the same terms, under `C#Cc1cnc(-c2ccc(C(O)CCOC(C)=O)s2)nc1Nc1cc(C2CC2)[nH]n1` (stereo not shown) [Compound 243, 3-(5-(4-(5-cyclopropyl-1H-pyrazol-3-ylamino)-5-ethynylpyrimidin-2-yl)thiophen-2-yl)-3-hydroxypropyl acetate] stands 10 to 50 nM; under `C#Cc1cnc(N2CCCCC2C(=O)OC)nc1Nc1cc(C2CC2)[nH]n1` (stereo not shown) [Compound 244, methyl 1-[4-[(5-cyclopropyl-1H-pyrazol-3-yl)amino]-5-ethynyl-pyrimidin-2-yl]piperidine-2-carboxylate], greater than 4000 nM; under `C#Cc1cnc(N2CCCCC2C(=O)O)nc1Nc1cc(C2CC2)n[nH]1` (stereo not shown) [Compound 245, 1-[4-[(5-cyclopropyl-2H-pyrazol-3-yl)amino]-5-ethynyl-pyrimidin-2-yl]piperidine-2-carboxylic acid], greater than 4000 nM.
For `C#Cc1cnc(-c2ccc(C(=O)C(=O)O)s2)nc1Nc1cc(C2CC2)[nH]n1` [Compound 246, 2-[5-[4-[(5-cyclopropyl-1H-pyrazol-3-yl)amino]-5-ethynyl-pyrimidin-2-yl]-2-thienyl]-2-oxo-acetic acid], the Ki fell in the range of 10 to 50 nM.
As for `NS(=O)(=O)c1ccc(-c2ncc(Cl)c(Nc3cc(-c4ccco4)[nH]n3)n2)s1` [Compound 247, 5-[5-chloro-4-[[5-(2-furyl)-1H-pyrazol-3-yl]amino]-pyrimidin-2-yl]thiophene-2-sulfonamide], the inhibition constant Ki fell in the range of 100 to 500 nM.
The same measure, in the same setting: under `C#Cc1cnc(N2CCCN(C)CC2)nc1Nc1cc(C2CC2)[nH]n1` [Compound 248, N-(5-cyclopropyl-1H-pyrazol-3-yl)-5-ethynyl-2-(4-methyl-1,4-diazepan-1-yl)-pyrimidin-4-amine] stands greater than 4000 nM.
Still for that read-out and setting: under `C#Cc1cnc(C2=CCNCC2)nc1Nc1cc(C2CC2)[nH]n1` [Compound 249, N-(5-cyclopropyl-1H-pyrazol-3-yl)-5-ethynyl-2-(1,2,3,6-tetrahydropyridin-4-yl)pyrimidin-4-amine] stands greater than 4000 nM.
Take `NNS(=O)(=O)c1ccc(-c2ncc(Cl)c(Nc3cc(C4CC4)[nH]n3)n2)s1` [Compound 251, 5-(5-chloro-4-(5-cyclopropyl-1H-pyrazol-3-ylamino)pyrimidin-2-yl)thiophene-2-sulfonohydrazide]: the inhibition constant (Ki) is 10 to 50 nM.
Regarding `CC(C)(C)NS(=O)(=O)c1ccc(-c2ncc(NC=O)c(Nc3cc(C4CC4)[nH]n3)n2)s1` [Compound 253, N-[4-[(5-cyclopropyl-1H-pyrazol-3-yl)amino]-2-[5-(tert-butylsulfamoyl)-2-thienyl]-pyrimidin-5-yl]formamide], the inhibition constant Ki fell in the range of 100 to 500 nM.
On the same count and under the same terms, under `C#Cc1cnc(-c2ccc(S(C)(=O)=O)s2)nc1Nc1cc(C2CC2)[nH]n1` [Compound 255, N-(5-cyclopropyl-4H-pyrazol-3-yl)-5-ethynyl-2-(5-(methylsulfonyl)thiophen-2-yl)pyrimidin-4-amine] stands 1 to 10 nM; under `C#Cc1cnc(N2CCCN(C(C)=O)CC2)nc1Nc1cc(C2CC2)n[nH]1` [Compound 258, 1-[4-[4-[(5-cyclopropyl-2H-pyrazol-3-yl)amino]-5-ethynyl-pyrimidin-2-yl]-1,4-diazepan-1-yl]ethanone], 100 to 500 nM.
The same measure, in the same setting: under `NS(=O)(=O)c1ccc(-c2ncc(Cl)c(Nc3cc(C4CCN(C(=O)OCc5ccccc5)C4)n[nH]3)n2)s1` (stereo not shown) [Compound 262, benzyl 3-[5-[[5-chloro-2-(5-sulfamoyl-2-thienyl)-pyrimidin-4-yl]amino]-1H-pyrazol-3-yl]pyrrolidine-1-carboxylate] stands 1000 to 2000 nM; under `NS(=O)(=O)c1ccc(-c2ncc(Cl)c(Nc3cc(C4CCNC4)n[nH]3)n2)s1` (stereo not shown) [Compound 263, 5-[5-chloro-4-[(5-pyrrolidin-3-yl-2H-pyrazol-3-yl)amino]-pyrimidin-2-yl]thiophene-2-sulfonamide], greater than 4000 nM; under `C[S+]([O-])c1ccc(-c2ncc(Cl)c(Nc3cc(C4CC4)[nH]n3)n2)s1` (stereo not shown) [Compound 264, 5-chloro-N-(5-cyclopropyl-1H-pyrazol-3-yl)-2-(5-methylsulfinyl-2-thienyl)-pyrimidin-4-amine], 1 to 10 nM.
In the case of `CC(C)(C)NS(=O)(=O)C/C=C/c1cccc(Nc2cc(C3CC3)[nH]n2)n1` [Compound 269, 3-[6-[(5-cyclopropyl-1H-pyrazol-3-yl)amino]-2-pyridyl]-N-tert-butyl-prop-2-ene-1-sulfonamide], the Ki is 100 to 500 nM.
For `NS(=O)(=O)C/C=C/c1cccc(Nc2cc(C3CC3)[nH]n2)n1` [Compound 270, 3-[6-[(5-cyclopropyl-1H-pyrazol-3-yl)amino]-2-pyridyl]prop-2-ene-1-sulfonamide], the “Ki Values” was “B**, B*, B*, B*”.
